Assay results reported in ChEMBL document CHEMBL4196131 (J Med Chem, 2018).

Experiments:
Estrogen receptor beta [1] = target: T1, Estrogen receptor beta (Homo sapiens, UniProt Q92731); test: Binding affinity to human ERbeta LBD after 2 hrs in absence of light by competitive fluorometric binding assay
[2] = target: T2, Estrogen receptor (Homo sapiens) (UniProt P03372); test: Agonist activity at human ERalpha expressed in HEK293T cells after 24 hrs by ERE-based dual luciferase reporter gene assay relative to E2; type: cell-based
T2 sequence (whole entry): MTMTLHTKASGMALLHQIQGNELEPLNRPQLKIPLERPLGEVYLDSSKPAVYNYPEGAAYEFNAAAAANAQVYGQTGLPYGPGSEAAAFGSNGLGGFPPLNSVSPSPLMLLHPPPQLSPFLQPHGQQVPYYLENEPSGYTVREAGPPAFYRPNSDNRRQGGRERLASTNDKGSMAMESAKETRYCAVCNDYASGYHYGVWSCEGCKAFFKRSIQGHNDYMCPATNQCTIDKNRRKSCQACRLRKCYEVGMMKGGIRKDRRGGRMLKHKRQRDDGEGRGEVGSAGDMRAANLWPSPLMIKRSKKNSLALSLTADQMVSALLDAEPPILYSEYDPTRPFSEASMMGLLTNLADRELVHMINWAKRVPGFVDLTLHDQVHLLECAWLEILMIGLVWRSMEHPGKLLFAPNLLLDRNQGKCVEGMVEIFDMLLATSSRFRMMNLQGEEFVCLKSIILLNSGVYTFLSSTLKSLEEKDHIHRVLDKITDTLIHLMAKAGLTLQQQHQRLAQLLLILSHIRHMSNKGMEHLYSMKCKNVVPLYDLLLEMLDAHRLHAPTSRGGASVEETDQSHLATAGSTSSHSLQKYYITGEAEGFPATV

Estrogen receptor beta [3] = target: T1, Estrogen receptor beta; test: Agonist activity at human ERbeta expressed in HEK293T cells after 24 hrs by ERE-based dual luciferase reporter gene assay; type: cell-based
Estrogen receptor beta [4] = target: T1, Estrogen receptor beta; test: Agonist activity at human ERbeta expressed in HEK293T cells after 24 hrs by ERE-based dual luciferase reporter gene assay relative to E2; type: cell-based
Estrogen receptor [5] = target: T3, Estrogen receptor (Homo sapiens, UniProt P03372); test: Antagonist activity at human ERalpha expressed in HEK293T cells after 24 hrs by ERE-based dual luciferase reporter gene assay; type: cell-based
T3 sequence (P03372 whole entry): T2 sequence (whole entry)

[6] = target: T2, Estrogen receptor (Homo sapiens); test: Antagonist activity at human ERalpha expressed in HEK293T cells after 24 hrs by ERE-based dual luciferase reporter gene assay relative to E2; type: cell-based
Estrogen receptor beta [7] = target: T1, Estrogen receptor beta; test: Antagonist activity at human ERbeta expressed in HEK293T cells after 24 hrs by ERE-based dual luciferase reporter gene assay relative to E2; type: cell-based; design: concentration or dose not given beside the values
[8] = Inhibition of NFkappaB in mouse RAW 264.7 cells assessed as reduction in LPS induced NO production after 24 hrs by Griess assay; type: cell-based; details: RAW264.7, 24 h
Mus musculus = organism: Mus musculus; test: Inhibition of NFkappaB in mouse RAW 264.7 cells assessed as reduction in LPS induced NO production at 10 uM after 24 hrs by Griess assay relative to control; type: cell-based
MCF7 = test: cells; details: Homo sapiens, MCF7, 72 h
Estrogen receptor beta [9] = target: T1, Estrogen receptor beta; test: Antagonist activity at human ERbeta expressed in HEK293T cells after 24 hrs by ERE-based dual luciferase reporter gene assay; type: cell-based
Estrogen receptor [10] = target: T3, Estrogen receptor; test: Agonist activity at human ERalpha expressed in HEK293T cells after 24 hrs by ERE-based dual luciferase reporter gene assay; type: cell-based

T1 sequence (Q92731 whole entry, the tested form may be a part): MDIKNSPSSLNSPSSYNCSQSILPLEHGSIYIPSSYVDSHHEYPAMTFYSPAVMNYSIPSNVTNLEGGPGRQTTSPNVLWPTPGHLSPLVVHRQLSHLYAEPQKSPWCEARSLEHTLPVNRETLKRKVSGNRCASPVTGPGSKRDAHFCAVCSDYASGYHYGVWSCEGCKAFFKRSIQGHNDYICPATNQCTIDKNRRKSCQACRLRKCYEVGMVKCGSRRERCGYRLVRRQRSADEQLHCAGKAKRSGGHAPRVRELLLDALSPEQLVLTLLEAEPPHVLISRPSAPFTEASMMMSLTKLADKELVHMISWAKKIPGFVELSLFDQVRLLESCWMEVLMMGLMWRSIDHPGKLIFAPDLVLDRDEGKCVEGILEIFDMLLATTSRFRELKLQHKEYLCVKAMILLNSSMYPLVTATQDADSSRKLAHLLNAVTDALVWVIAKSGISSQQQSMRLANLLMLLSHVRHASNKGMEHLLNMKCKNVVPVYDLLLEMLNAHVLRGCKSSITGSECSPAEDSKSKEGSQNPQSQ

Structure (SMILES)	Ki (Estrogen receptor beta [1]) [nM]	Efficacy [2] [%]	EC50 (Estrogen receptor beta [3]) [nM]	Efficacy (Estrogen receptor beta [4]) [%]	IC50 (Estrogen receptor [5]) [nM]	Efficacy [6] [%]	Efficacy (Estrogen receptor beta [7]) [%]	IC50 [8] [nM]	inhibition (Mus musculus) [%]	IC50 (MCF7) [nM]	IC50 (Estrogen receptor beta [9]) [nM]	EC50 (Estrogen receptor [10]) [nM]
O=S(=O)(Oc1cccc(/C=C/c2cc(O)cc(O)c2)c1)C1CC2OC1C(c1ccc(O)cc1)=C2c1ccc(O)cc1 (centres undefined)	4580	15	749	62	1410	29	93	16700	24.8	17800		
O=S(=O)(Oc1ccc(Br)cc1)C1CC2OC1C(c1ccc(/C=C/c3cc(O)cc(O)c3)cc1)=C2c1ccc(O)cc1 (centres undefined)		-9		10	61	15	43	16500	22	16900	2530	
O=S(=O)(Oc1cccc(Br)c1)C1CC2OC1C(c1ccc(/C=C/c3cc(O)cc(O)c3)cc1)=C2c1ccc(O)cc1 (centres undefined)	50	3		-2	2420	21	65	2530	60.9	19800		
O=S(=O)(Oc1cccc2ccccc12)C1CC2OC1C(c1ccc(/C=C/c3cc(O)cc(O)c3)cc1)=C2c1ccc(O)cc1 (centres undefined)		-10	222	65	49	-4	71	3290	44.4	11000		
O=S(=O)(Oc1ccccc1)C1CC2OC1C(c1ccc(/C=C/c3ccccc3)cc1)=C2c1ccc(O)cc1 (centres undefined)		13	2780	48	1030	34	83	9700	40.4	25200		
Cc1ccccc1OS(=O)(=O)C1CC2OC1C(c1ccc(/C=C/c3cc(O)cc(O)c3)cc1)=C2c1ccc(O)cc1 (centres undefined)		84	242	36	10	36	100	28400	39.1	55800		1250
CCc1ccccc1OS(=O)(=O)C1CC2OC1C(c1ccc(/C=C/c3cc(OC)cc(OC)c3)cc1)=C2c1ccc(O)cc1 (centres undefined)		18	9	20	3	37	72	790	65.4	49800		146
COc1cccc(OS(=O)(=O)C2CC3OC2C(c2ccc(/C=C/c4cc(O)cc(O)c4)cc2)=C3c2ccc(O)cc2)c1 (centres undefined)		55	3	52	48	36	102	11100	42.3	10400		
CC/C(=C(\c1ccc(O)cc1)c1ccc(OCCN(C)C)cc1)c1ccccc1 [AFIMOXIFENE]								> 100000	21.5	9500		
COc1cc(/C=C/c2cccc(OS(=O)(=O)C3CC4OC3C(c3ccc(O)cc3)=C4c3ccc(O)cc3)c2)cc(OC)c1 (centres undefined)		13		47	738	47	86	6370	55.1	11500		
O=S(=O)(Oc1cccc(C(F)(F)F)c1)C1CC2OC1C(c1ccc(/C=C/c3cc(O)cc(O)c3)cc1)=C2c1ccc(O)cc1 (centres undefined)		-7	1730	29	72	-10	31	14600	41.6	11500	42	
COc1cc(/C=C/c2ccc(OS(=O)(=O)[C@H]3C[C@H]4O[C@@H]3C(c3ccc(O)cc3)=C4c3ccc(O)cc3)cc2)cc(OC)c1					27	72		480		18000		
COc1cc(/C=C/c2ccc(C3=C(c4ccc(O)cc4)C4CC(S(=O)(=O)Oc5cccc(OC)c5)C3O4)cc2)cc(OC)c1 (centres undefined)		-2	941	37		32	39	1260	60.1	77100	646	
